Where two headings read alike, the source gives them in different places.
Biological target: T1, human androgen receptor (hAR) (Homo sapiens, UniProt P10275)
T1 sequence (P10275 1-920): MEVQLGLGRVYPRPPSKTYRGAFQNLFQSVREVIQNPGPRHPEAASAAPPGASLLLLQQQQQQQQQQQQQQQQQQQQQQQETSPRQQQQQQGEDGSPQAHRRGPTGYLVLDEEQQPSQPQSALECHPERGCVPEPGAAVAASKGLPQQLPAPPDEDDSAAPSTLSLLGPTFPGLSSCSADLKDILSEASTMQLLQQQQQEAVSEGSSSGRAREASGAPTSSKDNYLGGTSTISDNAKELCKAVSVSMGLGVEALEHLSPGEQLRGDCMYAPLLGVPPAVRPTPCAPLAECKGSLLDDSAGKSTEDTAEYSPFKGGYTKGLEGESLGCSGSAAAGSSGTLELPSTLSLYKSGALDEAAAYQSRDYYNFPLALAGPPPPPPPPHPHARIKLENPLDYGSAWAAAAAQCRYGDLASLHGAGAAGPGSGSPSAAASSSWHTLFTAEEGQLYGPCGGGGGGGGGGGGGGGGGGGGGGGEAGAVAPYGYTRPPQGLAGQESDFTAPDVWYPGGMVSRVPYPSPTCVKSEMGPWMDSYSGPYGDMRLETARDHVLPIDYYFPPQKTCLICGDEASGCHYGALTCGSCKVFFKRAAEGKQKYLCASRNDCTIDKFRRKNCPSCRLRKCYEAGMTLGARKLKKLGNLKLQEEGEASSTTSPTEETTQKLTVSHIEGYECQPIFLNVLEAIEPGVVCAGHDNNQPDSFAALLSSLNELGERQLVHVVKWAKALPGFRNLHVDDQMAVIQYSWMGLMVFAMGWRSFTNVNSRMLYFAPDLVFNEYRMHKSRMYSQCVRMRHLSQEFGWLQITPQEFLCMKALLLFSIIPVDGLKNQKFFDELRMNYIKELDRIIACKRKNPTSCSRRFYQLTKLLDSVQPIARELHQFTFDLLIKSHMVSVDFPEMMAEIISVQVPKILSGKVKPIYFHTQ
Assay: Functional response test: hAR transactivation (luciferase reporter) in HALP2 cells
Assay type: cell-based
Conditions: for EC50: agonism, HALP2 cells (HeLa, hAR + ARE-luciferase), 20 hours at 37° C.
Method in brief: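 HALP2 cells are HeLa cells stably transfected with CMV-driven hAR and a probasin ARE-luciferase reporter. They were seeded 24 h ahead, then exposed to compounds for 20 hours at 37° C in phenol red-free DMEM with 5% desteroided serum. Luciferase luminescence was measured after lysis; for antagonist mode, compounds were tested against increasing DHT concentrations.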

[1] = antagonism, concentration which increases the EC50 of the DHT by a factor of 2, Schild regression, HALP2 cells

CC(=O)CN1C(=O)N(c2ccc(C#N)c(C(F)(F)F)c2)C(=O)C1(C)c1ccc(O)cc1 (stereo not shown) [Example 235, 4-[2,5-dioxo-4-(4-hydroxyphenyl)-4-methyl-3-(2-oxopropyl)imidazolidin-1-yl]-2-trifluoromethylbenzonitrile]
KSchild (nM) potency: 8 nM

CC1(c2ccc(O)cc2)C(=O)N(c2ccc(C#N)c(C(F)(F)F)c2)C(=O)N1CCCO (stereo not shown) [Example 150]
KSchild (nM) potency: 60 nM

CC1(c2ccc(O)cc2)C(=O)N(c2ccc(Cl)c(Cl)c2)C(=O)N1CCCO (stereo not shown) [Example 147]
EC50: 300 nM | KSchild (nM) potency [1]: 300 nM

COc1ccc(C2(C)C(=O)N(c3ccc(C#N)c(C(F)(F)F)c3)C(=O)N2C)cc1F (stereo not shown) [Example 162, 4-[3,4-dimethyl-2,5-dioxo-4-(3-fluoro-4-methoxyphenyl)imidazolidin-1-yl]-2-trifluoromethylbenzonitrile]
KSchild (nM) potency: 40 nM

N#CCCN1C(=O)N(c2ccc(F)c(Cl)c2)C(=O)C1c1ccc(O)cc1 (stereo not shown) [Example 127]
EC50: 245 nM | KSchild (nM) potency [1]: 212.13 nM

N#CCN1C(=O)N(c2ccc(Cl)c(C(F)(F)F)c2)C(=O)C1c1ccc(O)cc1 (stereo not shown) [Example 93]
KSchild (nM) potency: 30 nM

C=CCN1C(=O)N(c2ccc([N+](=O)[O-])cc2)C(=O)C1c1ccc(O)cc1 (stereo not shown) [Example 65]
KSchild (nM) potency: 5.43 nM

C#CCN1C(=O)N(c2ccc(F)c(C(F)(F)F)c2)C(=O)C1c1ccc(O)cc1 (stereo not shown) [Example 69]
EC50: 42.4 nM | KSchild (nM) potency [1]: 42.43 nM

CC1(c2ccc(O)cc2)C(=O)N(c2ccc(Cl)c(Cl)c2)C(=O)N1CCCCO (stereo not shown) [Example 22, 1-(3,4-dichlorophenyl)-3-(4-hydroxybutyl)-4-(4-hydroxyphenyl)-4-methylimidazolidine-2,5-dione]
EC50: 15 nM | KSchild (nM) potency [1]: 15 nM

O=C1C(c2ccc(O)cc2)N(CCCCO)C(=O)N1c1ccc([N+](=O)[O-])c(C(F)(F)F)c1 (stereo not shown) [Example 131]
KSchild (nM) potency: 600 nM

CN1C(=O)N(c2ccc(F)c(F)c2)C(=O)C1c1ccc(O)cc1 (stereo not shown) [Example 46]
EC50: 77.5 nM | KSchild (nM) potency [1]: 77.46 nM

CN(C)CCN1C(=O)N(c2cccc(C(F)(F)F)c2)C(=O)C1c1ccc(O)cc1 (stereo not shown) [Example 120]
EC50: 424 nM | KSchild (nM) potency [1]: 424.26 nM

CCOCCCN1C(=O)N(c2ccc(F)c(C(F)(F)F)c2)C(=O)C1c1ccc(O)cc1 (stereo not shown) [Example 87]
EC50: 77.5 nM | KSchild (nM) potency [1]: 77.46 nM

CCOC(=O)CCN1C(=O)N(c2ccc(F)c(Cl)c2)C(=O)C1c1ccc(O)cc1 (stereo not shown) [Example 79]
EC50: 69.3 nM | KSchild (nM) potency [1]: 69.28 nM

C#CCN1C(=O)N(c2ccc(C#N)c(C(F)(F)F)c2)C(=O)[C@@]1(C)c1ccc(OC)cc1 [Example 154.1, (R)-4-[2,5-dioxo-4-(4-methoxyphenyl)-4-methyl-3-(2-propynyl)imidazolidin-1-yl]-2-trifluoromethylbenzonitrile]
KSchild (nM) potency: 15 nM

CN(C)CCN1C(=O)N(c2ccc([N+](=O)[O-])c(C(F)(F)F)c2)C(=O)C1c1ccc(O)cc1 (stereo not shown) [Example 114]
KSchild (nM) potency: 1095.45 nM

C=CCN1C(=O)N(c2ccc(F)c(Cl)c2)C(=O)C1c1ccc(O)cc1 (stereo not shown) [Example 63]
EC50: 69.3 nM | KSchild (nM) potency [1]: 69.28 nM

O=C1C(c2ccc(O)cc2)N(CCO)C(=O)N1c1ccc(Cl)c(C(F)(F)F)c1 (stereo not shown) [Example 141]
KSchild (nM) potency: 17.32 nM

CC1(c2ccc(O)cc2)C(=O)N(c2ccc(C#N)c(C(F)(F)F)c2)C(=O)N1CS(C)(=O)=O (stereo not shown) [Example 222.3, 4-[2,5-dioxo-4-(4-hydroxyphenyl)-4-methyl-3-[(methylsulphonyl)methyl]imidazolidin-1-yl]-2-trifluoromethylbenzonitrile]
KSchild (nM) potency [1]: 200 nM

O=C1C(c2ccc(O)cc2)N(Cc2ccc3c(c2)OCO3)C(=O)N1c1ccc(Cl)c(Cl)c1 (stereo not shown) [Example 99]
EC50: 69.3 nM | KSchild (nM) potency [1]: 69.28 nM

CN(C)CCN1C(=O)N(c2ccc(Cl)c(Cl)c2)C(=O)C1c1ccc(O)cc1 (stereo not shown) [Example 115]
EC50: 141 nM | KSchild (nM) potency [1]: 141.42 nM

CCOC(=O)CCN1C(=O)N(c2ccc(F)c(F)c2)C(=O)C1c1ccc(O)cc1 (stereo not shown) [Example 76]
EC50: 200 nM | KSchild (nM) potency [1]: 200 nM

CN1C(=O)N(c2ccc(C#N)c(C(F)(F)F)c2)C(=O)[C@]1(CF)c1ccc(O)cc1 [Example 177.1, (S)-4-[4-fluoromethyl-4-(4-hydroxyphenyl)-3-methyl-2,5-dioxoimidazolidin-1-yl]-2-trifluoromethylbenzonitrile]
KSchild (nM) potency: 310 nM

CN1C(=O)N(c2ccc(C#N)c(C(F)(F)F)c2)C(=O)[C@@]1(CF)c1ccc(O)cc1 [Example 177.2, (R)-4-[4-fluoromethyl-4-(4-hydroxyphenyl)-3-methyl-2,5-dioxoimidazolidin-1-yl]-2-trifluoromethylbenzonitrile]
KSchild (nM) potency: 40.4 nM

CC1(c2ccc(O)cc2)C(=O)N(c2ccc(C#N)c(C(F)(F)F)c2)C(=O)N1S(C)(=O)=O (stereo not shown) [Example 243.1, 4-[2,5-dioxo-4-(4-hydroxyphenyl)-4-methyl-3-(methylsulphonyl)imidazolidin-1-yl]-2-trifluoromethylbenzonitrile]
KSchild (nM) potency: 80 nM

N#CCN1C(=O)N(c2cccc(C(F)(F)F)c2)C(=O)C1c1ccc(O)cc1 (stereo not shown) [Example 96]
EC50: 693 nM | KSchild (nM) potency [1]: 692.82 nM

CCOC(=O)CCN1C(=O)N(c2ccc(C#N)c(C(F)(F)F)c2)C(=O)C1c1ccc(O)cc1 (stereo not shown) [Example 74]
KSchild (nM) potency: 17.32 nM

CCCC1(c2ccc(OC)cc2)C(=O)N(c2ccc(C#N)c(C(F)(F)F)c2)C(=O)N1C (stereo not shown) [Example 166.1, 4-[2,5-dioxo-4-(4-methoxyphenyl)-3-methyl-4-propylimidazolidin-1-yl]-2-trifluoromethylbenzonitrile]
KSchild (nM) potency: 400 nM

O=C1C(c2ccc(O)cc2)N(CCCCO)C(=O)N1c1cccc(C(F)(F)F)c1 (stereo not shown) [Example 136]
EC50: 600 nM | KSchild (nM) potency [1]: 600 nM

CCOCCCN1C(=O)N(c2ccc(F)c(F)c2)C(=O)C1c1ccc(O)cc1 (stereo not shown) [Example 85]
EC50: 300 nM | KSchild (nM) potency [1]: 300 nM

C=CCN1C(=O)N(c2ccc(F)c(F)c2)C(=O)C1c1ccc(O)cc1 (stereo not shown) [Example 14, 1-(3,4-difluorophenyl)-4-(4-hydroxyphenyl)-3-(2-propenyl)imidazolidine-2,5-dione]
EC50: 30 nM | KSchild (nM) potency [1]: 30 nM

CCCN1C(=O)N(c2ccc([N+](=O)[O-])c(C(F)(F)F)c2)C(=O)C1c1ccc(O)cc1 (stereo not shown) [Example 54]
KSchild (nM) potency [1]: 200 nM

N#Cc1ccc(N2C(=O)C(c3ccc(O)cc3)N(CCO)C2=O)cc1C(F)(F)F (stereo not shown) [Example 137]
KSchild (nM) potency: 24.49 nM

CCCN1C(=O)N(c2ccc(F)c(F)c2)C(=O)C1c1ccc(O)cc1 (stereo not shown) [Example 56]
EC50: 34.6 nM | KSchild (nM) potency [1]: 34.64 nM

COc1ccc2c(c1)CCC21C(=O)N(c2ccc(C#N)c(C(F)(F)F)c2)C(=O)N1C (stereo not shown) [Example 165, 4-[2′,3′-dihydro-2,5-dioxo-5′-methoxy-3-methylspiro(imidazolidin-4,1′(1H)inden)-1-yl]-2-trifluoromethylbenzonitrile]
KSchild (nM) potency: 60 nM

C#CCN1C(=O)N(c2ccc(F)c(Cl)c2)C(=O)C1c1ccc(O)cc1 (stereo not shown) [Example 70]
EC50: 20 nM | KSchild (nM) potency [1]: 20 nM

CCCN1C(=O)N(c2ccc(C#N)c(C(F)(F)F)c2)C(=O)C1c1ccc(O)cc1 (stereo not shown) [Example 60]
KSchild (nM) potency: 21.21 nM

COCCOCN1C(=O)N(c2ccc(C#N)c(C(F)(F)F)c2)C(=O)C1(C)c1ccc(O)cc1 (stereo not shown) [Example 238, 4-[2,5-dioxo-4-(4-hydroxyphenyl)-3-[(2-methoxyethoxy)methyl]-4-methylimidazolidin-1-yl]-2-trifluoromethylbenzonitrile]
KSchild (nM) potency: 15 nM

O=C1C(c2ccc(O)cc2)N(Cc2ccsc2)C(=O)N1c1ccc([N+](=O)[O-])cc1 (stereo not shown) [Example 53]
KSchild (nM) potency: 9.74 nM

O=C1C(c2ccc(O)cc2)N(CCCCO)C(=O)N1c1ccc(Cl)c(C(F)(F)F)c1 (stereo not shown) [Example 134]
EC50: 122 nM | KSchild (nM) potency [1]: 122.47 nM

O=C1C(c2ccc(O)cc2)N(Cc2ccsc2)C(=S)N1c1ccc(Cl)cc1Cl (stereo not shown) [Example 18, 1-(2,4-dichlorophenyl)-4-(4-hydroxyphenyl)-3-[(thiophen-3-yl)methyl]-2-thioxo-imidazolidin-5-one]
EC50: 5660 nM | KSchild (nM) potency [1]: 5656.85 nM
